Read-outs that look alike come from different tables or passages of the source.
Legend:
U937 = assay: MTT dye reduction cytotoxicity assay, U937; type: cell-based; details: Homo sapiens, U-937
CCRF-CEM [1] = assay: MTT dye reduction cytotoxicity assay, CCRF-CEM; type: cell-based; details: Homo sapiens
L1210 leukemia [2] = assay: Oral treatment of L1210 leukemia in BDF1 mice, therapy on days 1-5; type: in vivo, murine (female BDF1 mice); details: for T/C, increase of lifespan: including 60 day survivors; for Survivors 60 Days: survivors/group
Procedure: The anti-tumor activity of the liposomal drug preparations was evaluated with the murine L1210 leukemia model in female BDF1 mice (Rubas et al., Int. J. Cancer, 37, 149-154 (1986)). The L1210 cells (1×10^5) from donor ascites were injected i.v.
Control groups of 5-6 mice received ara-C dissolved in phosphate buffer (PB). The animals were observed daily until death or 60 days. Increase in lifespan of the treated animals (T) was compared to that of the untreated controls (C), expressed as T/C in percentages. Animals surviving 60 days were included in the calculation and considered as being cured.

L1210 leukemia [3] = assay: Intravenous treatment of L1210 leukemia in BDF1 mice; type: in vivo, murine (female BDF1 mice); details: i.v.; for T/C, increase of lifespan: including 60d survivors; for Survivors 60 Days: survivors/group
HL-60 [4] = assay: MTT dye reduction cytotoxicity assay, HL-60; type: cell-based; details: Homo sapiens
cytosine deaminase = details: in the body, in words; cited from earlier work
K562 = assay: MTT dye reduction cytotoxicity assay, K562; type: cell-based; details: Homo sapiens
PC3M = assay: Human tumor xenograft in nude mice, i.p., prostate carcinoma PC3M; type: in vivo; details: adenocarcinoma, i.p. 150 mg/kg/day (MTD), days 1,4,7,10
Procedure: (§1) 6 to 8 week old nude mice of NMRI genetic background were used for all experiments. Tumors were implanted subcutaneously in both flanks of athymic nude mice. Treatment was started as soon as the tumors reached a median diameter of 6 mm, depending on the doubling time between day 12-42. Mice were randomly assigned to treatment groups and control group (5-6 mice per group bearing 6-12 evaluable tumors).
(§2) Tumor size was measured by two-dimensional measurement with calipers. The antitumor effect was evaluated following maximal tumor regression, in non-regressing tumors after 3-4 weeks. Relative tumor volume (RTV) values were calculated for each single tumor by dividing the tumor volume day×by the tumor volume day 0 at the time of randomization. Median RTV values were used for further evaluation.
(§3) Drug therapy was intraperitoneal on day 1,4,7 and 10. The dose of 150 mg/kg/day was considered to be the maximal tolerated dose resulting in a lethality of 14% in tumor-bearing nude mice.
(§4) Tumor growth inhibition was calculated according to relative tumor volume of control minus test divided by the control group. Furthermore the specific growth delay (SGD) was calculated with regard to the tumor doubling time (DT) by doubling time test group minus control divided by the doubling time of the control group.

HL-60 [5] = assay: Human tumor xenograft in nude mice, i.p., leukemia HL-60; type: in vivo; details: HL-60, acute promyelocytic leukemia; i.p. 150 mg/kg/day (MTD), days 1,4,7,10
Procedure: as §1, §2, §3, §4

LXFS 605 = assay: Human tumor xenograft in nude mice, i.p., lung carcinoma LXFS 605; type: in vivo; details: LXFS 605, small cell; i.p. 150 mg/kg/day (MTD), days 1,4,7,10
Procedure: as §1, §2, §3, §4

MAXF 401 = assay: Human tumor xenograft in nude mice, i.p., mammary carcinoma MAXF 401; type: in vivo; details: MAXF 401, adenocarcinoma; i.p. 150 mg/kg/day (MTD), days 1,4,7,10
Procedure: as §1, §2, §3, §4

[6] = Toxicity (lethality, maximal tolerated dose) in tumor-bearing nude mice, i.p.; details: mouse, in vivo, ip
Procedure: as §1
Drug therapy was intraperitoneal on day 1,4,7 and 10.
Toxicity was assessed by lethality within 10 days after last therapy and body weight loss. The body weight of the nude mice was measured weekly, for rapidly growing tumor lines, measurements were done twice weekly.

CCRF-CEM (dcK)^- = assay: MTT dye reduction cytotoxicity assay, CCRF-CEM deoxycytidine kinase deficient cell line; type: cell-based; details: Homo sapiens
OVXF 1023 = assay: Human tumor xenograft in nude mice, i.p., ovary carcinoma OVXF 1023; type: in vivo; details: i.p. 150 mg/kg/day (MTD), days 1,4,7,10
Procedure: as §1, §2, §3, §4

MEXF 276 = assay: Human tumor xenograft in nude mice, i.p., melanoma MEXF 276; type: in vivo; details: MEXF 276, amelanotic; i.p. 150 mg/kg/day (MTD), days 1,4,7,10
Procedure: as §1, §2, §3, §4

LXFL 529 = assay: Human tumor xenograft in nude mice, i.p., lung carcinoma LXFL 529; type: in vivo; details: LXFL 529, large cell; i.p. 150 mg/kg/day (MTD), days 1,4,7,10
Procedure: as §1, §2, §3, §4

CCRF-CEM [7] = assay: Human tumor xenograft in nude mice, i.p., leukemia CCRF-CEM; type: in vivo; details: acute lymphatic leukemia, i.p. 150 mg/kg/day (MTD), days 1,4,7,10
Procedure: as §1, §2, §3, §4

[8] = total dose 200 μmol/kg (49 mg/kg)

For `Nc1ccn([C@@H]2O[C@H](CO)[C@@H](O)[C@@H]2O)c(=O)n1` [ara-C, 4-amino-1-β-D-arabinofuranosyl-2(1H)-pyrimidinone, reference compound], the IC50 (U937) was greater than 200 µM, the IC50 (CCRF-CEM [1]) was less than 1 µM and the “Survival Time, Mean ± SD” value (L1210 leukemia [2]; total dose 2 mmol/kg) was 13 ± 17 days. For the same compound, the “Survival Time, Range” value (L1210 leukemia [2]; total dose 2 mmol/kg) was 10 to 52 days, the “T/C, increase of lifespan” value (L1210 leukemia [2]; total dose 2 mmol/kg) was 221% and the “Survivors 60 Days” value (L1210 leukemia [2]; total dose 2 mmol/kg) was 0/6. The “Survival Time, Mean ± SD” value (L1210 leukemia [3]; [8]) was 19.8 ± 19.7 days, the “T/C, increase of lifespan” value (L1210 leukemia [3]; [8]) was 282% and the “Survivors 60 Days” value (L1210 leukemia [3]; [8]) was 1/6. The IC50 (HL-60 [4]; HL-60) was greater than 200 µM, the “deamination by cytosine deaminase” value (cytosine deaminase) was “rapidly undergoes deamination” and the IC50 (K562; K562) was greater than 400 µM.
For `CCCCCCCCCCCCCCCCNc1ccn([C@@H]2O[C@H](CO)[C@@H](O)[C@@H]2O)c(=O)n1` [N^4 -Hexadecyl-ara-C, 4-(1-hexadecylamino)-1-β-D-arabinofuranosyl-2(1H)-pyrimidinone], the “Survival Time, Mean ± SD” value (L1210 leukemia [3]; total dose 50 μmol/kg) was 10.6 days, the “Survival Time, Range” value (L1210 leukemia [3]; total dose 50 μmol/kg) was 10 to 11 days and the “Survivors 60 Days” value (L1210 leukemia [3]; total dose 50 μmol/kg) was 0/5. The “Survival Time, Mean ± SD” value (L1210 leukemia [3]; total dose 100 μmol/kg) was 12.0 days, the “Survival Time, Range” value (L1210 leukemia [3]; total dose 100 μmol/kg) was 11 to 16 days and the “Survivors 60 Days” value (L1210 leukemia [3]; total dose 100 μmol/kg) was 0/5.
For `CCCCCCCCCCCCCCCCCCNc1ccn([C@@H]2O[C@H](CO)[C@@H](O)[C@@H]2O)c(=O)n1` [NOAC, 4-(1-octadecylamino)-1-β-D-arabinofuranosyl-2(1H)-pyrimidinone], the Growth inhibition (PC3M) was 83%, the Growth inhibition (HL-60 [5]) was 97% and the IC50 (U937; U937, MTT assay, read-out: IC50) was less than 100 µM. For the same compound, the Growth inhibition (LXFS 605) was 73%, the IC50 (CCRF-CEM [1]; MTT assay, read-out: IC50) was 50 µM and the Growth inhibition (MAXF 401) was 85%. The MTD ([6]; days 1,4,7 and 10, tumor-bearing nude mice) was 150 mg/kg/day, the mortality ([6]; 150 mg/kg/day i.p., tumor-bearing nude mice) was 14% and the IC50 (CCRF-CEM (dcK)^-) was less than 140 µM. The “Survival Time, Mean ± SD” value (L1210 leukemia [2]; total dose 1 mmol/kg) was 54 ± 15 days, the “T/C, increase of lifespan” value (L1210 leukemia [2]; total dose 1 mmol/kg) was 673% and the “Survivors 60 Days” value (L1210 leukemia [2]; total dose 1 mmol/kg) was 5/6. The “Survival Time, Mean ± SD” value (L1210 leukemia [2]; total dose 2 mmol/kg) was 55 ± 12 days, the “T/C, increase of lifespan” value (L1210 leukemia [2]; total dose 2 mmol/kg) was 689% and the “Survivors 60 Days” value (L1210 leukemia [2]; total dose 2 mmol/kg) was 5/6. For the same compound, the “effect compared with ara-C and N^4-hexadecyl-ara-C” value (L1210 leukemia [3]; results of Table 2, in words) was “superiority of NOAC over the prior art compounds, ara-C and N^4 -hexadecyl-ara-C”, the “Survival Time, Mean ± SD” value (L1210 leukemia [3]; total dose 50 μmol/kg) was 52.1 ± 19.2 days and the “T/C, increase of lifespan” value (L1210 leukemia [3]; total dose 50 μmol/kg) was 744%. For the same compound, the “Survivors 60 Days” value (L1210 leukemia [3]; total dose 50 μmol/kg) was 5/6, the “Survival Time, Mean ± SD” value (L1210 leukemia [3]; total dose 100 μmol/kg) was 60 days and the “Survival Time, Range” value (L1210 leukemia [3]; total dose 100 μmol/kg) was greater than 60 days. For the same compound, the “T/C, increase of lifespan” value (L1210 leukemia [3]; total dose 100 μmol/kg) was 857%, the “Survivors 60 Days” value (L1210 leukemia [3]; total dose 100 μmol/kg) was 6/6 and the IC50 (HL-60 [4]; HL-60, MTT assay, read-out: IC50) was less than 50 µM. It also gave a Growth inhibition (OVXF 1023) of 45%, a Growth inhibition (MEXF 276) of 39% and a Growth inhibition (LXFL 529) of 79%. It also gave a Growth inhibition (CCRF-CEM [7]) of 96% and an IC50 (K562; K562, MTT assay, read-out: IC50) of less than 200 µM.

— US5641758A, “Cytarabine derivatives, the preparation and use thereof” (priority 1994, dated 1997)
